One experiment relates to M. abscessus (MABSC). The experiment is described as follows: MIC against CF isolates (Example 7, Table 18). It counts as cell-based, Mycobacterium abscessus complex. The following applies: Mycobacteroides abscessus.
Experiment [1] relates to Corynebacterium amycolatum. The experiment in a line: MIC of baseline clinical isolates (Example 8). In kind it is cell-based. The following applies: Corynebacterium amycolatum baseline isolates (N′ = 1), central laboratory, mITT. The method in brief:
(§1)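 Baseline isolates came from Day 1 and later surgical samples at the index site: infected bone or tissue next to implants, deep-infection swabs, and superficial wound/sinus tract sites. A central laboratory isolated and identified aerobes and anaerobes, and MICs of MBN-101 (BisEDT) were determined per CLSI.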

Experiment [2] concerns non-speciated Corynebacterium. The experiment in a line: MIC of baseline clinical isolates (Example 8). It counts as cell-based. The following applies: Corynebacterium non-speciated baseline isolates (N′ = 2), central laboratory, mITT. The method in brief: as §1
For another experiment, the system named is Corynebacterium jeikeium. The experiment in a line: MIC of baseline clinical isolates (Example 8). It counts as cell-based. The following applies: Corynebacterium jeikeium baseline isolates (N′ = 2), central laboratory, mITT. The method in brief: as §1
A further experiment deals with Streptococcus oralis. The experiment in a line: MIC of baseline clinical isolates (Example 8). In kind it is cell-based. The following applies: Streptococcus oralis baseline isolates (N′ = 1), central laboratory, mITT. In a few lines:
as §1

For another experiment, the system named is P. aeruginosa. Conditions: P. aeruginosa MMX 103 (ATCC 27853); cited from earlier work.
Experiment [3] relates to P. aeruginosa and A. baumannii. The experiment is described as follows: MIC summary, P. aeruginosa and A. baumannii (Example 5). In kind it is cell-based. Conditions: all evaluated P. aeruginosa and A. baumannii isolates (Table 4); read-out: MIC values across isolates. The procedure:
(§2) Test and Comparator Agents: The test agents were stored at room temperature until assayed. All test agents were suspended and diluted in 100% dimethylsulfoxide (DMSO), and were ultimately tested at a final concentration of 0.06-64 μg/mL. The stock solutions were allowed to stand for at least 1 hr prior to use to auto-sterilize.
TestMedia: Test media were prepared and stored in accordance with guidelines from CLSI (4, 6, 7). […] Neisseria gonorrhoeae were evaluated by agar dilution using agar consisting of GC medium base (BD; Lot No. 4274618) supplemented with 1% IsoVitaleX (BD; Lot No. 5246843).
Broth Microdilution MC Testing (Aerobic Bacteria and Yeast): The broth microdilution assay method employed for the susceptibility testing of aerobic bacteria (excluding N. gonorrhoeae which was evaluated by agar dilution) and yeast essentially followed the procedures described by CLSI (3, 4, 7, 8) and employed automated liquid handlers to conduct serial dilutions and liquid transfers. […]
Plates were stacked 4 high, covered with a lid on the top plate, placed into plastic bags, and incubated at 35° C. for approximately 24-48 hr for all yeast isolates and 16-24 hr for aerobic bacteria. […] MIC endpoints for the test agents and control compounds were read per CLSI criteria (3, 7).

In the next experiment the test system is C. tropicalis. The experiment is described as follows: Broth microdilution MIC, yeast (Example 5). Conditions: Candida tropicalis, FLUR. It counts as cell-based. As for the experimental part: as §2
(§3) The susceptibility of yeast isolates was determined by broth microdilution in RPMI medium (HyClone Laboratories, Logan, UT; Lot No. AZC184041B) buffered with 0.165 M MOPS (Calbiochem, Billerica, MA; Lot No. 2694962). The pH of the medium was adjusted to 7.0 with 1 N NaOH, sterile filtered using a 0.2 μm PES filter, and stored at 4° C. until used.
(§4) Broth Microdilution MC Testing (Aerobic Bacteria and Yeast): The broth microdilution assay method employed for the susceptibility testing of aerobic bacteria (excluding N. gonorrhoeae which was evaluated by agar dilution) and yeast essentially followed the procedures described by CLSI (3, 4, 7, 8) and employed automated liquid handlers to conduct serial dilutions and liquid transfers. Automated liquid handlers included the Multidrop 384 (Labsystems, Helsinki, Finland) and Biomek 2000 (Beckman Coulter, Fullerton CA). The wells in columns 2-12 in standard 96-well microdilution plates (Costar 3795) were filled with 150 μl of the correct diluent. These would become the ‘mother plates’ from which ‘daughter’ or test plates would be prepared. The drugs (300 μL at 40× the desired top concentration in the test plates) were dispensed into the appropriate well in Column 1 of the mother plates. The Biomek 2000 was used to make serial two-fold dilutions through Column 11 in the “mother plate”. The wells of Column 12 contained no drug and ultimately served as the organism growth control wells.
(§5) The daughter plates were loaded with 185 μL per well of the appropriate test media using the Multidrop 384. The daughter plates were prepared using the Biomek FX which transferred 5 μL of drug solution from each well of a mother plate to the corresponding well of the correct daughter plate in a single step.
(§6) A standardized inoculum of each organism was prepared per CLSI methods (3, 7). Isolated colonies of each test isolate were picked from the primary plate and a suspension was prepared to equal a 0.5 McFarland turbidity standard. Standardized suspensions were then diluted […] (1:100 for yeast, 1:20 for bacteria). After dilution, the inoculum suspensions were then transferred to compartments of sterile reservoirs divided by length (Beckman Coulter), and the Biomek 2000 was used to inoculate all plates. Daughter plates were placed on the Biomek 2000 in reverse orientation so that plates were inoculated from low to high drug concentration.
(§7) The Biomek 2000 delivered 10 μL of standardized inoculum into each well of the appropriate daughter plate for an additional 1:20 dilution. […] The final concentration of DMSO (if used as a solvent) in the test well was 2.5%.
(§8) Plates were stacked 4 high, covered with a lid on the top plate, placed into plastic bags, and incubated at 35° C. for approximately 24-48 hr for all yeast isolates and 16-24 hr for aerobic bacteria. Plates were viewed from the bottom using a plate viewer. […] MIC endpoints for the test agents and control compounds were read per CLSI criteria (3, 7).

The next experiment deals with C. glabrata. The experiment in a line: Broth microdilution MIC, yeast (Example 5). It counts as cell-based. Conditions: Nakaseomyces glabratus, FLUR. The procedure:
as §2, §3, §4, §5, §6, §7, §8

A further experiment relates to C. parapsilosis. The experiment in a line: Broth microdilution MIC, yeast (Example 5). Conditions: Lodderomyces parapsilosis. It counts as cell-based. As for the experimental part: as §2, §3, §4, §5, §6, §7, §8
The next experiment deals with C. albicans. The experiment is described as follows: Broth microdilution MIC, yeast (Example 5). In kind it is cell-based. The following applies: Candida albicans, Sensitive. The procedure: as §2, §3, §4, §5, §6, §7, §8
Where [4] appears, read: 24 h, C. parapsilosis MMX 7370, FLUR.
[5] abbreviates: 24 h, C. parapsilosis MMX 7555, FLUR.
Setting [6] is: 48 h, C. parapsilosis MMX 7370, FLUR.
Where [7] appears, read: 48 h, C. parapsilosis MMX 7555, FLUR.
Where [8] appears, read: ATCC22019, 24 h, C. parapsilosis MMX 2323 (ATCC 22019), QC, 24 hr.
Where [9] appears, read: ATCC22019, 48 h, C. parapsilosis MMX 2323 (ATCC 22019), QC, 48 hr.

The values that follow come from patent US20240285571A1, “METHODS OF TREATING BONE INFECTIONS” (MICROBION CORPORATION, priority 2020, published 2024).

SMILES strings stand for the structures. Values after ≈ are worked out from the molar mass of the structure shown.

For the compound `NCC[C@H](O)C(=O)N[C@@H]1C[C@H](N)[C@@H](O[C@H]2O[C@H](CN)[C@@H](O)[C@H](O)[C@H]2O)[C@H](O)[C@H]1O[C@H]1O[C@H](CO)[C@@H](O)[C@H](N)[C@H]1O` [Amikacin], the MIC was 32 µg/mL (≈ 54.6 µM) with M. abscessus (MABSC) (strain AMT0068-40, M abscessus/massiliense complex) and 32 µg/mL (≈ 54.6 µM) against M. abscessus (MABSC) (strain AMT0119-7, M abscessus/massiliense complex).
`CCC[C@@H]1C[C@@H](C(=O)N[C@@H]([C@H]2O[C@H](SC)[C@H](O)[C@@H](O)[C@H]2O)[C@H](C)Cl)N(C)C1` [CLI]: the “Mean MIC” value came to 2.00 µg/mL in [1], 1.06 µg/mL in experiment [2], 2.00 µg/mL in the experiment with Corynebacterium jeikeium and 0.03 µg/mL in the experiment with Streptococcus oralis. For the same compound, the “n (% resistant)” value in [1] is recorded as 1 (100.0) n (%); in experiment [2], 1 (50.0) n (%); with Corynebacterium jeikeium it was 2 (100.0) n (%); in the experiment with Streptococcus oralis, 0 (0.0) n (%).
For the compound `CC(C)(O/N=C(\C(=O)N[C@@H]1C(=O)N2C(C(=O)[O-])=C(C[n+]3ccccc3)CS[C@H]12)c1csc(N)n1)C(=O)O` [Ceftazidime], the “CLSI QC range of MIC” value in the experiment on P. aeruginosa was “(1-4) μg/mL”.
Turning to `C[C@H]1COc2c(N3CCN(C)CC3)c(F)cc3c(=O)c(C(=O)O)cn1c23` [Levofloxacin], the MIC was 8 µg/mL in experiment [1], 0.18 µg/mL in experiment [2], 0.18 µg/mL in the experiment with Corynebacterium jeikeium and 2 µg/mL in the experiment on Streptococcus oralis. Further, the “n (% resistant)” value (in experiment [1]; in experiment [2]; in the experiment with Corynebacterium jeikeium; with Streptococcus oralis) was 0 (0.0) n (%) throughout.
With `OCC(S)CS.[Bi]` (centres unmarked) [MB-2B, bismuth-2,3-dimercaptopropanol], the MIC in experiment [3] is 2 to 16 µg/mL; against C. tropicalis (24 h, C. tropicalis MMX 7247), 2 µg/mL; in the experiment on C. tropicalis (24 h, C. tropicalis MMX 7248), 4 µg/mL; with C. tropicalis (24 h, C. tropicalis MMX 7360), 1 µg/mL; in the experiment with C. tropicalis (48 h, C. tropicalis MMX 7247) it was 4 µg/mL; in the experiment with C. tropicalis (48 h, C. tropicalis MMX 7248), 4 µg/mL. Moreover, the MIC with C. tropicalis (48 h, C. tropicalis MMX 7360) is 2 µg/mL; against C. glabrata (24 h, C. glabrata MMX 7086), 0.5 µg/mL; against C. glabrata (24 h, C. glabrata MMX 7318), 0.25 µg/mL; in the experiment with C. glabrata (48 h, C. glabrata MMX 7086), 1 µg/mL; against C. glabrata (48 h, C. glabrata MMX 7318), 1 µg/mL; with C. parapsilosis (setting [4]), 0.5 µg/mL. The MIC was 0.25 µg/mL in the experiment with C. parapsilosis (setting [5]); 0.5 µg/mL against C. parapsilosis (setting [6]); 1 µg/mL against C. parapsilosis (setting [7]); 0.5 µg/mL with C. parapsilosis (setting [8]); 1 µg/mL against C. parapsilosis (setting [9]); 2 µg/mL in the experiment on C. albicans (24 h, C. albicans MMX 7039). The MIC amounted to 1 µg/mL against C. albicans (24 h, C. albicans MMX 7055); 2 µg/mL in the experiment on C. albicans (48 h, C. albicans MMX 7039); 4 µg/mL in the experiment on C. albicans (48 h, C. albicans MMX 7055).
For the compound `CC(S)C(C)S.[Bi]` (centres unmarked) [MB-6, bismuth-2,3-butanedithiol], the MIC is 0.5 to 2 µg/mL in [3]; 4 µg/mL in the experiment on C. tropicalis (24 h, C. tropicalis MMX 7247); 4 µg/mL in the experiment with C. tropicalis (24 h, C. tropicalis MMX 7248); 2 µg/mL with C. tropicalis (24 h, C. tropicalis MMX 7360); 4 µg/mL with C. tropicalis (48 h, C. tropicalis MMX 7247); 8 µg/mL against C. tropicalis (48 h, C. tropicalis MMX 7248). Besides, the MIC was 2 µg/mL in the experiment with C. tropicalis (48 h, C. tropicalis MMX 7360); 0.5 µg/mL in the experiment with C. glabrata (24 h, C. glabrata MMX 7086); 0.25 µg/mL against C. glabrata (24 h, C. glabrata MMX 7318); 1 µg/mL in the experiment with C. glabrata (48 h, C. glabrata MMX 7086); 0.5 µg/mL in the experiment on C. glabrata (48 h, C. glabrata MMX 7318); 0.25 µg/mL against C. parapsilosis (setting [4]). In addition, the MIC came to 0.25 µg/mL against C. parapsilosis (setting [5]); 0.5 µg/mL against C. parapsilosis (setting [6]); 0.5 µg/mL in the experiment with C. parapsilosis (setting [7]); 0.5 µg/mL in the experiment with C. parapsilosis (setting [8]); 1 µg/mL against C. parapsilosis (setting [9]); 2 µg/mL in the experiment with C. albicans (24 h, C. albicans MMX 7055). Moreover, the minimum inhibitory concentration (MIC) was 2 µg/mL in the experiment on C. albicans (48 h, C. albicans MMX 7039); 2 µg/mL in the experiment on C. albicans (48 h, C. albicans MMX 7055); 0.0625 µg/mL in the experiment with M. abscessus (MABSC) (MABSC strain AMT0130-8).
For the compound `C[C@@H](O)[C@H]1C(=O)N2C(C(=O)O)=C(S[C@@H]3CN[C@H](C(=O)N(C)C)C3)[C@H](C)[C@H]12` [Meropenem], the “CLSI QC range of MIC” value in the experiment on P. aeruginosa is “(0.25-1) μg/mL”.
